{"source": "the supplement of paper PMC10733146", "assay_in_all_cases": "viability relative to DMSO control (fraction); higher = less drug effect (more viable cells)", "conditions_in_all_cases": "48 h", "key": {"[1]": {"tested_on": "primary ALL patient cells (S048)", "in_short": "(§1)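 Primary mononuclear tumour cells (Ficoll-isolated from blood or bone marrow, or processed lymph node; fresh or cryopreserved) were plated at 4 × 10^4 cells per well in 384-well plates with pre-plated compounds at five concentrations, one well each. Medium was RPMI-1640 with penicillin/streptomycin, L-glutamine and human serum, at 37 °C and 5% CO2 for 48 h. Viability was read as CellTiter-Glo luminescence relative to the median of 16 inner DMSO wells.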"}, "[2]": {"tested_on": "primary ALL patient cells (S088)", "in_short": "as §1"}, "[3]": {"tested_on": "primary AML patient cells (S002)", "in_short": "as §1"}, "[4]": {"tested_on": "primary AML patient cells (S009)", "in_short": "as §1"}, "[5]": {"tested_on": "primary AML patient cells (S017)", "in_short": "as §1"}, "[6]": {"tested_on": "primary AML patient cells (S019)", "in_short": "as §1"}, "[7]": {"tested_on": "primary AML patient cells (S021)", "in_short": "as §1"}, "[8]": {"tested_on": "primary AML patient cells (S025)", "in_short": "as §1"}, "[9]": {"tested_on": "primary AML patient cells (S055)", "in_short": "as §1"}, "[10]": {"tested_on": "primary AML patient cells (S060)", "in_short": "as §1"}, "[11]": {"tested_on": "primary AML patient cells (S071)", "in_short": "as §1"}, "[12]": {"tested_on": "primary AML patient cells (S072)", "in_short": "as §1"}, "[13]": {"tested_on": "primary AML patient cells (S079)", "in_short": "as §1"}, "[14]": {"tested_on": "primary AML patient cells (S089)", "in_short": "as §1"}, "[15]": {"tested_on": "primary AML patient cells (S091)", "in_short": "as §1"}, "[16]": {"tested_on": "primary B-PLL patient cells (S016)", "in_short": "as §1"}, "[17]": {"tested_on": "primary DLBCL patient cells (S082)", "in_short": "as §1"}, "[18]": {"tested_on": "primary FL patient cells (S022)", "in_short": "as §1"}, "[19]": {"tested_on": "primary FL patient cells (S087)", "in_short": "as §1"}, "[20]": {"tested_on": "primary MCL patient cells (S053)", "in_short": "as §1"}}, "data": [{"compound": "O=C(c1cc(Cc2n[nH]c(=O)c3ccccc23)ccc1F)N1CCN(C(=O)C2CC2)CC1", "note": "[Olaparib]", "values": [{"measurement": "viability", "setting": "[1]; 0.024 µM", "result": 0.685}, {"measurement": "viability", "setting": "[1]; 0.12 µM", "result": 0.799}, {"measurement": "viability", "setting": "[1]; 0.6 µM", "result": 0.786}, {"measurement": "viability", "setting": "[1]; 3 µM", "result": 0.771}, {"measurement": "viability", "setting": "[1]; 15 µM", "result": 0.7}, {"measurement": "viability", "setting": "[2]; 0.024 µM", "result": 0.579}, {"measurement": "viability", "setting": "[2]; 0.12 µM", "result": 0.775}, {"measurement": "viability", "setting": "[2]; 0.6 µM", "result": 0.788}, {"measurement": "viability", "setting": "[2]; 3 µM", "result": 0.821}, {"measurement": "viability", "setting": "[2]; 15 µM", "result": 0.787}, {"measurement": "viability", "setting": "[3]; 0.024 µM", "result": 0.804}, {"measurement": "viability", "setting": "[3]; 0.12 µM", "result": 1.05}, {"measurement": "viability", "setting": "[3]; 0.6 µM", "result": 0.935}, {"measurement": "viability", "setting": "[3]; 3 µM", "result": 0.804}, {"measurement": "viability", "setting": "[3]; 15 µM", "result": 0.748}, {"measurement": "viability", "setting": "[4]; 0.024 µM", "result": 0.977}, {"measurement": "viability", "setting": "[4]; 0.12 µM", "result": 0.987}, {"measurement": "viability", "setting": "[4]; 0.6 µM", "result": 1.02}, {"measurement": "viability", "setting": "[4]; 3 µM", "result": 0.93}, {"measurement": "viability", "setting": "[4]; 15 µM", "result": 0.958}, {"measurement": "viability", "setting": "[5]; 0.024 µM", "result": 0.796}, {"measurement": "viability", "setting": "[5]; 0.12 µM", "result": 0.917}, {"measurement": "viability", "setting": "[5]; 0.6 µM", "result": 0.931}, {"measurement": "viability", "setting": "[5]; 3 µM", "result": 0.94}, {"measurement": "viability", "setting": "[5]; 15 µM", "result": 0.914}, {"measurement": "viability", "setting": "[6]; 0.024 µM", "result": 0.851}, {"measurement": "viability", "setting": "[6]; 0.12 µM", "result": 0.939}, {"measurement": "viability", "setting": "[6]; 0.6 µM", "result": 0.91}, {"measurement": "viability", "setting": "[6]; 3 µM", "result": 0.889}, {"measurement": "viability", "setting": "[6]; 15 µM", "result": 0.893}, {"measurement": "viability", "setting": "[7]; 0.024 µM", "result": 0.878}, {"measurement": "viability", "setting": "[7]; 0.12 µM", "result": 0.846}, {"measurement": "viability", "setting": "[7]; 0.6 µM", "result": 0.895}, {"measurement": "viability", "setting": "[7]; 3 µM", "result": 0.938}, {"measurement": "viability", "setting": "[7]; 15 µM", "result": 0.797}, {"measurement": "viability", "setting": "[8]; 0.024 µM", "result": 0.995}, {"measurement": "viability", "setting": "[8]; 0.12 µM", "result": 0.973}, {"measurement": "viability", "setting": "[8]; 0.6 µM", "result": 0.95}, {"measurement": "viability", "setting": "[8]; 3 µM", "result": 1.01}, {"measurement": "viability", "setting": "[8]; 15 µM", "result": 0.861}, {"measurement": "viability", "setting": "[9]; 0.024 µM", "result": 0.937}, {"measurement": "viability", "setting": "[9]; 0.12 µM", "result": 0.899}, {"measurement": "viability", "setting": "[9]; 0.6 µM", "result": 0.91}, {"measurement": "viability", "setting": "[9]; 3 µM", "result": 0.965}, {"measurement": "viability", "setting": "[9]; 15 µM", "result": 0.919}, {"measurement": "viability", "setting": "[10]; 0.024 µM", "result": 0.947}, {"measurement": "viability", "setting": "[10]; 0.12 µM", "result": 0.926}, {"measurement": "viability", "setting": "[10]; 0.6 µM", "result": 0.979}, {"measurement": "viability", "setting": "[10]; 3 µM", "result": 0.973}, {"measurement": "viability", "setting": "[10]; 15 µM", "result": 0.987}, {"measurement": "viability", "setting": "[11]; 0.024 µM", "result": 0.974}, {"measurement": "viability", "setting": "[11]; 0.12 µM", "result": 1.01}, {"measurement": "viability", "setting": "[11]; 0.6 µM", "result": 1.02}, {"measurement": "viability", "setting": "[11]; 3 µM", "result": 0.917}, {"measurement": "viability", "setting": "[11]; 15 µM", "result": 0.806}, {"measurement": "viability", "setting": "[12]; 0.024 µM", "result": 0.829}, {"measurement": "viability", "setting": "[12]; 0.12 µM", "result": 0.891}, {"measurement": "viability", "setting": "[12]; 0.6 µM", "result": 0.914}, {"measurement": "viability", "setting": "[12]; 3 µM", "result": 0.885}, {"measurement": "viability", "setting": "[12]; 15 µM", "result": 0.852}, {"measurement": "viability", "setting": "[13]; 0.024 µM", "result": 0.828}, {"measurement": "viability", "setting": "[13]; 0.12 µM", "result": 0.844}, {"measurement": "viability", "setting": "[13]; 0.6 µM", "result": 0.898}, {"measurement": "viability", "setting": "[13]; 3 µM", "result": 0.893}, {"measurement": "viability", "setting": "[13]; 15 µM", "result": 0.815}, {"measurement": "viability", "setting": "[14]; 0.024 µM", "result": 0.959}, {"measurement": "viability", "setting": "[14]; 0.12 µM", "result": 0.82}, {"measurement": "viability", "setting": "[14]; 0.6 µM", "result": 0.883}, {"measurement": "viability", "setting": "[14]; 3 µM", "result": 0.63}, {"measurement": "viability", "setting": "[14]; 15 µM", "result": 0.814}, {"measurement": "viability", "setting": "[15]; 0.024 µM", "result": 0.857}, {"measurement": "viability", "setting": "[15]; 0.12 µM", "result": 0.796}, {"measurement": "viability", "setting": "[15]; 0.6 µM", "result": 0.883}, {"measurement": "viability", "setting": "[15]; 3 µM", "result": 0.862}, {"measurement": "viability", "setting": "[15]; 15 µM", "result": 0.691}, {"measurement": "viability", "setting": "[16]; 0.024 µM", "result": 0.86}, {"measurement": "viability", "setting": "[16]; 0.12 µM", "result": 0.871}, {"measurement": "viability", "setting": "[16]; 0.6 µM", "result": 0.872}, {"measurement": "viability", "setting": "[16]; 3 µM", "result": 0.8}, {"measurement": "viability", "setting": "[16]; 15 µM", "result": 0.722}, {"measurement": "viability", "setting": "[17]; 0.024 µM", "result": 0.835}, {"measurement": "viability", "setting": "[17]; 0.12 µM", "result": 0.887}, {"measurement": "viability", "setting": "[17]; 0.6 µM", "result": 0.878}, {"measurement": "viability", "setting": "[17]; 3 µM", "result": 0.817}, {"measurement": "viability", "setting": "[17]; 15 µM", "result": 0.718}, {"measurement": "viability", "setting": "[18]; 0.024 µM", "result": 0.828}, {"measurement": "viability", "setting": "[18]; 0.12 µM", "result": 1.07}, {"measurement": "viability", "setting": "[18]; 0.6 µM", "result": 0.937}, {"measurement": "viability", "setting": "[18]; 3 µM", "result": 0.866}, {"measurement": "viability", "setting": "[18]; 15 µM", "result": 0.875}, {"measurement": "viability", "setting": "[19]; 0.024 µM", "result": 0.882}, {"measurement": "viability", "setting": "[19]; 0.12 µM", "result": 0.916}, {"measurement": "viability", "setting": "[19]; 0.6 µM", "result": 0.911}, {"measurement": "viability", "setting": "[19]; 3 µM", "result": 0.912}, {"measurement": "viability", "setting": "[19]; 15 µM", "result": 0.845}, {"measurement": "viability", "setting": "[20]; 0.024 µM", "result": 0.801}, {"measurement": "viability", "setting": "[20]; 0.12 µM", "result": 0.863}, {"measurement": "viability", "setting": "[20]; 0.6 µM", "result": 0.834}, {"measurement": "viability", "setting": "[20]; 3 µM", "result": 0.685}, {"measurement": "viability", "setting": "[20]; 15 µM", "result": 0.643}]}]}
